# Laboratory results: PMC4666649, “The Influence of the 1-(3-Trifluoromethyl-Benzyl)-1H-Pyrazole-4-yl Moiety on the Adenosine Receptors Affinity Profile of Pyrazolo[4,3-e][1,2,4]Triazolo[1,5-c]Pyrimidine Derivatives” (PLoS ONE, 2015)
# Counter-ions that a name gives are not always drawn. Like-named read-outs stand apart in the source and are kept apart here.
# Assays:
# [1] = biological target: T1, hA3 AR (Homo sapiens, UniProt P0DMS8); test: Radioligand binding at human A3 ARs, displacement of [3H]HEMADO, membranes of transfected CHO cells; details: for Ki, hA1/hA3 (selectivity) / Ki, hA2a/hA3 (selectivity) / Ki, hA2b/hA3 (selectivity): ratio of Ki values, for reference compounds from literature affinities (Borea et al. unless otherwise indicated)
# T1 construct: expressed in transfected cells; host or cells: CHO cells, stably transfected
# T1 sequence (P0DMS8 1-318): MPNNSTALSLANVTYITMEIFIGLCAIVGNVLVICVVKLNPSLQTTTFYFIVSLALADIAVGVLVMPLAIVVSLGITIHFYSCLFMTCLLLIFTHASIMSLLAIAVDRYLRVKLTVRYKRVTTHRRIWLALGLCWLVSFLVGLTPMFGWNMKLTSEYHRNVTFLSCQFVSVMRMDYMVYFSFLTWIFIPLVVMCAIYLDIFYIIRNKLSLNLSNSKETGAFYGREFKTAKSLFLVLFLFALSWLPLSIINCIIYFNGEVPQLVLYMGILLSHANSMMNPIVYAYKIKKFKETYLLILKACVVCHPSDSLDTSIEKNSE
# Procedure: (§1) All pharmacological methods followed the procedures as described earlier. […] In brief, membranes for radioligand binding were prepared from CHO cells stably transfected with human AR subtypes in a two-step procedure. In a first low-speed step (1,000 x g) cell fragments and nuclei were removed. The crude membrane fraction was sedimented from the supernatant at 100,000 x g. The membrane pellet was resuspended in the buffer used for the respective binding experiments (50 mM Tris/HCl buffer pH 7.4 for hA1 and hA2A AR; 50 mM Tris/HCl, 10 mM MgCl2, 1 mM EDTA, pH 8.25 for hA3 AR), frozen in liquid nitrogen and stored at -80°C.
# (§2) Ki-values from competition experiments were calculated with the program SCTFIT.
# [2] = biological target: T1, hA3 AR; details: cited from earlier work; for Ki: reference xanthines
# [3] = biological target: T2, hA2A AR (Homo sapiens, UniProt P29274); test: Radioligand binding at human A2A ARs, displacement of [3H]NECA, membranes of transfected CHO cells
# T2 construct: expressed in transfected cells; host or cells: CHO cells, stably transfected
# T2 sequence (P29274 whole entry): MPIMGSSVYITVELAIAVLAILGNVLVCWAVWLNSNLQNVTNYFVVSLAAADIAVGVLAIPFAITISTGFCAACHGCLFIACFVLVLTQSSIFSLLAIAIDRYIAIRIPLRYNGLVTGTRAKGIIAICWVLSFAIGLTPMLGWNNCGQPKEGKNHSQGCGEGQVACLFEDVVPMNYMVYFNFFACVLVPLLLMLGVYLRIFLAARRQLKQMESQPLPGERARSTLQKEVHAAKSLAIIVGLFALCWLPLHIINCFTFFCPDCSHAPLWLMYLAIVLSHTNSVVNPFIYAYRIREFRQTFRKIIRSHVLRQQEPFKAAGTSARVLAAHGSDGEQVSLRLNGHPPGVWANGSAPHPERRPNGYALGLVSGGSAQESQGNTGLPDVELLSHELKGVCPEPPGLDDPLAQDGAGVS
# Procedure: as §1, §2
# [4] = biological target: T3, hA2B AR (Homo sapiens, UniProt P29275); test: Inhibition of NECA-stimulated adenylyl cyclase activity in CHO cells expressing hA2B ARs; assay type: biochemical
# T3 construct: expressed in transfected cells; host or cells: CHO cells, stably transfected
# T3 sequence (P29275 1-332): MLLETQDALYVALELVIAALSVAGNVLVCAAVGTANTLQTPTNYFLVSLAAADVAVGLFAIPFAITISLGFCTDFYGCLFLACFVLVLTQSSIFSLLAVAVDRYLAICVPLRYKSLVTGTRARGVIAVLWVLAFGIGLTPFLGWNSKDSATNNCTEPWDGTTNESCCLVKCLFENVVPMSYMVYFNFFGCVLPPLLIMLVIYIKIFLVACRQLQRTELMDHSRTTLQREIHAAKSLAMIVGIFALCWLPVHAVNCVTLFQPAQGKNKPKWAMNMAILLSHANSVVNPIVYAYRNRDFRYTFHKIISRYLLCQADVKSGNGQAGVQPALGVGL
# Procedure: All pharmacological methods followed the procedures as described earlier. […] For the measurement of adenylyl cyclase activity only one high speed centrifugation of the homogenate was used. The resulting crude membrane pellet was resuspended in 50 mM Tris/HCl, pH 7.4 and immediately used for the cyclase assay.
# The procedure was carried out as described previously with minor modifications. […] Membranes were incubated with about 150,000 cpm of [α-^32P]ATP for 20 min in the incubation mixture as described without EDTA and NaCl.
# [5] = biological target: T4, hA1 AR (Homo sapiens, UniProt P30542); test: Radioligand binding at human A1 ARs, displacement of [3H]CCPA, membranes of transfected CHO cells
# T4 sequence (P30542 1-326): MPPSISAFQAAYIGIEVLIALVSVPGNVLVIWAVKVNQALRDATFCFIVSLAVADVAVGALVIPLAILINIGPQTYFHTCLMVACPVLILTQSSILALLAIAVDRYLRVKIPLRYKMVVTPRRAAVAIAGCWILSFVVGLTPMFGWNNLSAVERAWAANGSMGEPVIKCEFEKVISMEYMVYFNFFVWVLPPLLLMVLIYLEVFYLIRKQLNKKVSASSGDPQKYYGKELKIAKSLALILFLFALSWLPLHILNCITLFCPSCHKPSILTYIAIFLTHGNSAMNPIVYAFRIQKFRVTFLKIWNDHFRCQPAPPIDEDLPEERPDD
# Procedure: as §1, §2
# [6] = biological target: T2, hA2A AR; details: reference xanthines; cited from earlier work
# [7] = displacement of specific [3H]-NECA binding, CHO cells, geometric means with 95% confidence limits, read-out: hA2A AR (Ki nM)
# [8] = displacement of specific [3H]-HEMADO binding, CHO cells, geometric means with 95% confidence limits, read-out: hA3 AR (Ki nM)
# [9] = displacement of specific [3H]-CCPA binding, CHO cells, n = 3–6, geometric means with 95% confidence limits, read-out: hA1 AR (Ki nM)
# [10] = competition for [3H]HEMADO, total binding, single experiment (S1 Fig), read-out: Ki, hA3 AR, representative single experiment
smiles,measurement,setting,value
"Cn1cc2c(nc(NC(=O)Nc3ccncc3)n3nc(-c4ccco4)nc23)n1 [MRE3005F20 (HCl), reference compound]","Ki, hA1/hA3 (selectivity)",[1],35000
same,"Ki, hA2a/hA3 (selectivity)",[1],10000
same,"Ki, hA2b/hA3 (selectivity)",[1],25000
"CCCCC#Cc1nc(NC)c2ncn([C@@H]3O[C@H](CO)[C@@H](O)[C@H]3O)c2n1 [[^3H]HEMADO, [^3H]2-(1-Hexynyl)-N-methyladenosine]",Kd,"[2]; radioligand used at 1 nM, read-out: KD of radioligand at A3 AR",1.1 nM
"Cn1c(=O)c2[nH]c(-c3cnn(Cc4cccc(C(F)(F)F)c4)c3)nc2n(C)c1=O [compound 1, 8-(1-(3-(trifluoromethyl)benzyl)-1H-pyrazol-4-yl)-1,3-dimethyl-1H-purine-2,6(3H,7H)-dione, reference compound]","Ki, hA1/hA3 (selectivity)",[1],1
same,"Ki, hA2a/hA3 (selectivity)",[1],1
"Cn1cc2c(nc(N)n3nc(-c4cnn(Cc5cccc(C(F)(F)F)c5)c4)nc23)n1 [compound 3, 8-methyl-2-[1-(3-trifluoromethyl-benzyl)-1H-pyrazol-4-yl]-8H-pyrazolo[4,3-e][1,2,4]triazolo[1,5-c]pyrimidin-5-ylamine]",Ki,"[3]; competition with [3H]NECA, total binding, single experiment (S3 Fig), read-out: Ki, hA2A AR, representative single experiment",6820 nM
same,hA2A AR (Ki nM),"[3]; displacement of specific [3H]-NECA binding, CHO cells, geometric means with 95% confidence limits",almost inactive
same,Ki,[3]; [7],8280 nM
same,melting point,,125 °C
same,hA3 AR (Ki nM),"[1]; displacement of specific [3H]-HEMADO binding, CHO cells, geometric means with 95% confidence limits",almost inactive
same,Ki,[1]; [8],2360 nM
same,"Ki, hA2a/hA3 (selectivity)",[1],4
same,"Ki, hA2b/hA3 (selectivity)",[1],4
same,Ki,[4],> 10000 nM
same,hA2B AR (Ki nM),[4],almost inactive
same,Ki,"[5]; competition with [3H]CCPA, total binding, single experiment (S2 Fig), read-out: Ki, hA1 AR, representative single experiment",764 nM
same,hA1 AR (Ki nM),"[5]; displacement of specific [3H]-CCPA binding, CHO cells, n = 3–6, geometric means with 95% confidence limits",almost inactive
same,Ki,[5]; [9],703 nM
"Cn1cc2c(nc(NC(=O)Nc3ccccc3)n3nc(-c4cnn(Cc5cccc(C(F)(F)F)c5)c4)nc23)n1 [compound 4, 1-{8-Methyl-2-[1-(3-trifluoromethyl-benzyl)-1H-pyrazol-4-yl]-8H-pyrazolo[4,3-e][1,2,4]triazolo [1,5-c]pyrimidin-5-yl}-3-phenylurea]",Ki,[3]; [7],2460 nM
same,Ki,[1]; [10],39 nM
same,Ki,[1]; [8],46.7 nM
same,Ki,[4],> 10000 nM
same,Ki,[5]; [9],3890 nM
"Cn1cc2c(nc(NC(=O)c3ccccc3)n3nc(-c4cnn(Cc5cccc(C(F)(F)F)c5)c4)nc23)n1 [compound 5, N-{8-Methyl-2-[1-(3-trifluoromethyl-benzyl)-1H-pyrazol-4-yl]-8H-pyrazolo[4,3-e][1,2,4]triazolo[1,5-c]pyrimidin-5-yl}-benzamide]",Ki,[3]; [7],> 100000 nM
same,Ki,[1]; [8],138 nM
same,Ki,[4],> 10000 nM
same,Ki,[5]; [9],25500 nM
"Cn1cc2c(nc(NC(=O)Cc3ccccc3)n3nc(-c4cnn(Cc5cccc(C(F)(F)F)c5)c4)nc23)n1 [compound 6, N-{8-Methyl-2-[1-(3-trifluoromethyl-benzyl)-1H-pyrazol-4-yl]-8H-pyrazolo[4,3-e][1,2,4]triazolo[1,5-c]pyrimidin-5-yl}-phenyl-acetamide]",Ki,[3]; [7],> 100000 nM
same,melting point,,190 °C
same,Ki,[1]; [10],17 nM
same,Ki,[1]; [8],11 nM
same,"Ki, hA2a/hA3 (selectivity)",[1],> 9091
same,"Ki, hA2b/hA3 (selectivity)",[1],> 909
same,Ki,[4],> 10000 nM
same,Ki,[5]; [9],> 100000 nM
COc1ccc(CC(=O)Nc2nc3nn(C)cc3c3nc(-c4cnn(Cc5cccc(C(F)(F)F)c5)c4)nn23)cc1 [compound 7],Ki,[3]; [7],20500 nM
same,melting point,,178 °C
same,Ki,[1]; [8],53 nM
same,Ki,[4],> 10000 nM
same,Ki,[5]; [9],4390 nM
"CCCn1c(=O)c2[nH]c(-c3cnn(Cc4cccc(C(F)(F)F)c4)c3)nc2n(CCC)c1=O [compound 33, reference compound]",Ki,[2],56 nM
same,"Ki, hA1/hA3 (selectivity)",[1],3
same,"Ki, hA2a/hA3 (selectivity)",[1],4
same,Ki,[6],230 nM
"CCCn1c(=O)c2[nH]c(-c3cnn(Cc4cccc(F)c4)c3)nc2n(CCC)c1=O [compound 36, reference compound]",Ki,[2],150 nM
same,"Ki, hA1/hA3 (selectivity)",[1],1
same,"Ki, hA2a/hA3 (selectivity)",[1],3
same,Ki,[6],400 nM
